In patent US4719229A, “Antihypercholesterolemic agents” (Merck & Co., Inc., priority 1987, dated 1988):

Target: T1, HMG-CoA reductase (Rattus norvegicus, UniProt P51639)
T1 construct: from tissue; inferred from the cited J. Med. Chem. 1985, 28, 347
T1 sequence (P51639 1-887): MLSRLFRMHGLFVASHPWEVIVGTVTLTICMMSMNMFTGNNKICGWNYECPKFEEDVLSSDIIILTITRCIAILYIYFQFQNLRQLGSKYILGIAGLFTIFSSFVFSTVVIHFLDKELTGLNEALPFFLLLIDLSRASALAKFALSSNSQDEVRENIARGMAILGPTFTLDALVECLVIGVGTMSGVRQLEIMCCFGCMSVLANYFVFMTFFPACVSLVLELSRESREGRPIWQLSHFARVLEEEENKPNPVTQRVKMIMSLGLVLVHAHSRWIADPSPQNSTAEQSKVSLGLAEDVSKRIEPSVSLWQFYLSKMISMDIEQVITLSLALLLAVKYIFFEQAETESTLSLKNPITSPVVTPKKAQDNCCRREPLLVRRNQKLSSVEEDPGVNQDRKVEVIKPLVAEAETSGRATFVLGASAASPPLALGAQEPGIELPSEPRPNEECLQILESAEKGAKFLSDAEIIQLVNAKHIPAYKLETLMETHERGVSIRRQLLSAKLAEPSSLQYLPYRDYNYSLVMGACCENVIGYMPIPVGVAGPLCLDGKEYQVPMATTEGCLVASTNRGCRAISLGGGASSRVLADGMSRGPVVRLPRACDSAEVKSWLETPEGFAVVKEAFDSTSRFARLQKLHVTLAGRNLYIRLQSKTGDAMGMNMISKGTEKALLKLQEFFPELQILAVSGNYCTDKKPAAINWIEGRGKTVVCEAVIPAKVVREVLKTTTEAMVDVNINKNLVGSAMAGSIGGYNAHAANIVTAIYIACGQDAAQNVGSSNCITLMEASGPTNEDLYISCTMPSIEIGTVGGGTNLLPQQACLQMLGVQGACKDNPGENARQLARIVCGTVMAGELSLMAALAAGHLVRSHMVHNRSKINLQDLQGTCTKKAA
Experiment: intrinsic HMG-CoA reductase inhibition activity, in vitro protocol of J. Med. Chem., 1985, 28, page 347
Format: biochemical
Details: tested as the potassium salt
Experimental: The intrinsic HMG-CoA reductase inhibition activity of the claimed compounds is measured in the in vitro protocol described is J. Med. Chem., 1985, 28, page 347.

For `C[C@@H]1CC[C@H]2C(=CC(O)[C@H](C)[C@@H]2CC[C@@H](O)C[C@@H](O)CC(=O)O)C1` (stereo partly shown), the IC50 was 5.87 µM.
